Reference: patent publication US11427605B2, “Crystalline forms of 5-chloro-N4-[-2-(dimethylphosphoryl) phenyl]-N2-{2-methoxy-4-[4-(4-methylpiperazin-1-yl) piperidin-1-yl] phenyl} pyrimidine-2,4-diamine” (ARIAD Pharmaceuticals, Inc., priority 2014, dated 2022)

How the values were obtained:
[1] = Remeasurement by XRPD after storage at ambient conditions; type: physicochemical
Experimental: For each experiment, the anti-solvent was added to each solvent vial, with a solvent to anti-solvent ratio of 1:0.25. In the cases where no precipitation occurred, this ratio was increased to 1:1, and if again no precipitation occurred the ratio was increased to 1:4, with a waiting time of 60 minutes between the additions (up to the third addition) and 35 minutes between the third addition and fourth addition. When no crystallization occurred or not enough solids precipitated for separation, samples were kept at 5° C. for 17 hours. The precipitated solids were separated from the liquids by centrifugation and decantation. When decantation could not be applied, the liquid was carefully removed using Pasteur's pipettes. The solids were dried at 200 mbar for 17 hours and analyzed by XRPD and digital imaging. In the cases where no precipitation occurred, the solvents were evaporated at 200 mbar for 17 hours prior to lowering the vacuum to 5 mbar. All obtained solids were analyzed by XRPD and digital imaging. The measuring plates containing the final solid were stored at ambient temperature for 5 weeks. The solid form was assessed again by XRPD. The arrows in Table 18 indicate if the form changed during storage.
A total of 68 slurry experiments were performed with brigatinib both at room temperature (20° C.) and 40° C., using 34 solvents. In all cases, a solvent volume of 250 μL was used. The slurries were stirred for two weeks. At the end of the slurry time, the vials were centrifuged and solids and mother liquids separated. The solids were analyzed wet and dry by XRPD and digital imaging. The measuring plates were then stored at ambient conditions for 3-4 weeks and another XRPD was obtained of the solid, any form change is shown by an arrow.
After completion of the cycling program, the solids were separated from the mother liquids by centrifugation, dried under 200 mbar for 48 hours (2-ethoxyethanol for 283 hours) and analyzed by XRPD and digital imaging. For the applied crystallization conditions and corresponding obtained solid forms, see Table 24. Solid form (or mixture) following the arrow (→) was obtained upon remeasurement by XRPD after storage of the measuring plates at ambient conditions for 5 weeks.
In Table 27, the occurrence of solid forms of brigatinib is given, together with the crystallization methods from which they crystallized and the related solvents. The table provides the results of over 600 experiments with solid forms measured by XRPD wet and/or dry (wet and dry count as separate experiments). In eight cases, no form assignment was made due to low yield. The solid form(s) following the arrow was/were obtained upon remeasurement by XRPD after storage of the measuring plates at ambient conditions for several weeks (2-5 weeks).

[2] = Dehydration of Forms C and D (drying); type: physicochemical
Experimental: In Table 25, a list of drying conditions for Form C are presented together with the final solid form.
In Table 26, a list of drying processes of Form D are presented. Form D under 5 mbar pressure and at 60° C. led to the formation of Form B after 24 h. In some instances, small quantities of Form C were visible on the XRPD patterns, even after 5 days of drying. This observation could be attributed to different particle morphology (fine particles vs. agglomerates/aggregates). […] In general, depending on the time and pressure, Forms B and C occur.

Variable humidity XRPD = type: physicochemical; conditions: 30° C.
Experimental: The temperature variation rate was 10° C./min.
The relative humidity was increased from the starting amount, brought up to the maximum, then dried back to the minimum value. The data collection time was 41 min at each step, time starting after equilibration of the relative humidity.
The peaks shifts were reversible at RH of about 30%. A sample of Form A was then exposed to 80% RH for 15 h. The peaks shifts had occurred after 90 min, and the extent of the shifts remained constant throughout the exposure at 80% RH for 15 h. Upon return to 10% RH, the peaks shifted to their original position. To investigate the amount of water adsorbed, a new sample of Form A was exposed for 2 h at 80% and a TGMS of this sample was measured.
For Form B, the relative humidity was measured at 30° C. The RH % values measured were 10, 30, 50, 60, 65, 70, 75, and 80%. […] At 80% RH the conversion to Form C was completed. Upon desorption, Form C dehydrates to Form B, starting at about 30% RH. At 10% RH the conversion to Form B was completed.
For Form C, a hydrate, the relative humidity was measured at 30° C. The experiment was performed starting at the maximum RH and dehydrated, then rehydrated back up to the maximum value. The RH % values measured were 10, 15, 20, 25, 30, 35, 40, 60, and 80%. Upon desorption, Form C dehydrated to Form B, starting at about 25% RH. At 10% RH, the conversion to Form B was complete. Upon sorption, Form B converted to Form C, starting at about 60% RH. At 80% RH the conversion to Form C was complete. The results are consistent with the corresponding experiments of Form B.
For Form D, a hydrate, the relative humidity was measured at 30° C. The experiment was performed starting at the maximum RH and dehydrated, then rehydrated back up to the maximum value. The RH % values measured were 10, 15, 20, 25, 30, 35, 40, 60, and 80%. […] Form C dehydrated to Form B, starting at about 20% RH. At 10% RH, the conversion to Form B was complete. Upon sorption, Form B converted to Form C, starting at about 40% RH. At 80% RH, the conversion to Form C was complete.

[3] = for Temperature at which (partial) conversion to Form A was observed / Temperature at which conversion to Form A was complete: sample started as the labelled form; for Temperature of dehydration to anhydrous Form B / Temperature of solid-solid transition to Form A: ambient humidity, increasing temperature; for Temperature of solid-solid transition to Form A: not reversible
Experimental: High resolution X-ray powder diffraction patterns disclosed herein were collected on a D8 Advance system in the Brag-Brentano geometry equipped with LynxEye solid state detector. The radiation used for collecting the data was CuKα1 (λ=1.54056 Å) monochromatized by germanium crystal. The patterns were collected in the range of 4-41.5°2θ, with a step in the range of 0.016 °2θ without further processing. All patterns were taken at room temperature, approximately 295 K. The material was placed in a boron glass capillary of 0.3 mm diameter. For variable humidity and variable temperature experiments disclosed herein, an ANSYCO HT chamber was used. The material was placed on a fixed sample holder that was mounted inside the chamber. The humidity was applied locally and varied from 10% to 80% (dew point). The temperature variation rate was 10° C./min.
Data was collected for Forms A, B, C, and D almost immediately after reaching the target temperature (within approximately 10 min).
For Form A, the temperatures used in the experiment were 25, 40, 60, 100, 120, 140, 150, 160, 170, 180, 190, and 200° C. Data collection lasted 20 min per temperature and the stabilization time in between was 10 min.
For Form B, the temperatures used in the experiment were 25, 40, 60, 100, 120, 140, 150, 155, 160, 165, 170, 180, and 190° C. Data collection lasted 45 min per temperature and the stabilization time in between was 10 min.
For Form C, the temperatures used in the experiment were 25, 40, 60, 70, 80, 100, 120, 140, 150, 155, 160, 165, 170, 175, 180, 190, and 200° C. Data collection lasted 40 min per temperature and the stabilization time in between was 10 min.
For Form D, the temperatures used in the experiment were 25, 35, 45, 55, 65, 75, 85, 100, 120, 140, 150, 155, 160, 165, 170, 175, 180, 190, and 200° C. Data collection lasted 10 min for temperatures 25-85° C. with a stabilization time of 1 min, and 40 min for temperatures 100-25° C. with a stabilization time of 10 min.

[4] = Vapor diffusion onto solids experiments; type: physicochemical; conditions: room temperature, two weeks
Experimental: For the 34 vapor diffusion onto solids experiments, amorphous brigatinib was prepared by grinding the starting material for 4 hours. The vials containing the amorphous brigatinib were left open and placed in closed 40 mL vials containing 2 mL of solvent (see Table 21). The amorphous brigatinib was exposed to solvent vapors at room temperature for two weeks. At the end of the experiment time, the solids were harvested wet and dry and analyzed by XRPD and digital imaging. For the applied crystallization conditions and corresponding obtained solid forms see Table 22.

[5] = sample started as the labelled form

## COc1cc(N2CCC(N3CCN(C)CC3)CC2)ccc1Nc1ncc(Cl)c(Nc2ccccc2P(C)(C)=O)n1 [Form F, brigatinib]
[1]; heating or storage at ambient conditions for 8 weeks
  Solid form after storage (XRPD): desolvated to give Form A

## COc1cc(N2CCC(N3CCN(C)CC3)CC2)ccc1Nc1ncc(Cl)c(Nc2ccccc2P(C)(C)=O)n1 [Form D, brigatinib]
[2]; 5 mbar, 60° C., 24 h
  final solid form after drying: Form B
[2]; 50 mbar, 60° C., 86 h
  final solid form after drying: mixture of Forms B+C
[2]; 50 mbar, 60° C., 110 h
  final solid form after drying: Form B
[2]; 15 h at 60° C., 5 mbar
  final solid form after drying: C + D
[2]; 20 h (RT), 5 mbar
  final solid form after drying: B + C
[2]; 20 h at 60° C., 5 mbar
  final solid form after drying: B + C
[2]; 28 h at 60° C., 5 mbar
  final solid form after drying: B + C
[2]; 65 h at 60° C., 50 mbar
  final solid form after drying: B + C
[2]; 86 h at 60° C., 50 mbar
  final solid form after drying: B + C
[2]; 5 days at 60° C., 5 mbar
  final solid form after drying: B + C
[2]; 8 days, closed vial at RT, ambient pressure
  final solid form after drying: B + C
Variable humidity XRPD; [5]
  RH at which Form B starts to convert to hydrated Form C (sorption): about 40 % RH
  RH at which Form C starts to dehydrate to Form B (desorption): about 20 % RH
  RH at which conversion to Form B was complete (desorption): 10 % RH
  RH at which conversion to Form C was complete (sorption): 80 % RH
Variable humidity XRPD; 80% RH, freshly prepared Form D
  Solid form at first measurements: already partially transformed to Form C
[3]; VT-XRPD
  Temperature at which Form D had converted (partially) to hydrated Form C: 35 °C
  Temperature at which Form D had converted to dehydrated Form B: 45 °C
  Temperatures at which the form is unstable: higher than 25 °C
  Temperature at which (partial) conversion to Form A was observed: 120 °C
  Temperature at which conversion to Form A was complete: 150 °C
[3]
  Temperature of dehydration to anhydrous Form B: about 40 °C
  Temperature of solid-solid transition to Form A: about 150 °C

## COc1cc(N2CCC(N3CCN(C)CC3)CC2)ccc1Nc1ncc(Cl)c(Nc2ccccc2P(C)(C)=O)n1 [Form G, brigatinib]
[1]; ambient conditions for 5 weeks
  Solid form after storage (XRPD): had transformed to Form A

## COc1cc(N2CCC(N3CCN(C)CC3)CC2)ccc1Nc1ncc(Cl)c(Nc2ccccc2P(C)(C)=O)n1 [Forms A+J, brigatinib]
[1]; mixture of Forms A+J, ambient conditions for 3 weeks
  Solid form after storage (XRPD): still a mixture of Forms A+J

## COc1cc(N2CCC(N3CCN(C)CC3)CC2)ccc1Nc1ncc(Cl)c(Nc2ccccc2P(C)(C)=O)n1 [Forms A+K, brigatinib]
[1]; mixture of Forms A+K, ambient conditions for 3 weeks
  Solid form after storage (XRPD): still a mixture of Forms A+K

## COc1cc(N2CCC(N3CCN(C)CC3)CC2)ccc1Nc1ncc(Cl)c(Nc2ccccc2P(C)(C)=O)n1 [A+L, brigatinib]
[1]; mixtures A+L, ambient conditions for 3 weeks
  Solid form after storage (XRPD): still a mixture of A+L

## COc1cc(N2CCC(N3CCN(C)CC3)CC2)ccc1Nc1ncc(Cl)c(Nc2ccccc2P(C)(C)=O)n1 [amorphous brigatinib]
[4]; Chloroform vapors, no solids after 2 weeks
  Form dry (XRPD): A + Am
[4]; Dichloromethane vapors, no solids after 2 weeks
  Form dry (XRPD): Am
[4]; Water vapors
  Form dry (XRPD): A + B + C

## COc1cc(N2CCC(N3CCN(C)CC3)CC2)ccc1Nc1ncc(Cl)c(Nc2ccccc2P(C)(C)=O)n1 [Form C, brigatinib]
[2]; 30° C., 1.5 h, ambient pressure
  final solid form after drying: appears to be stable
[2]; 40° C., 1 h, ambient pressure
  final solid form after drying: converted to Form B
Variable humidity XRPD; [5]
  RH at which Form B starts to convert to hydrated Form C (sorption): about 60 % RH
  RH at which conversion to Form B was complete (desorption): 10 % RH
  RH at which conversion to Form C was complete (sorption): 80 % RH
[3]; VT-XRPD
  Temperatures at which the form is unstable: higher than 25 °C
  Temperature at which (partial) conversion to Form A was observed: 120 °C
  Temperature at which conversion to Form A was complete: 155 °C
[3]
  Temperature of dehydration to anhydrous Form B: about 40 °C
  Temperature of solid-solid transition to Form A: about 150 °C

## COc1cc(N2CCC(N3CCN(C)CC3)CC2)ccc1Nc1ncc(Cl)c(Nc2ccccc2P(C)(C)=O)n1 [Form E, brigatinib]
[1]; several weeks at ambient temperature
  Solid form after storage (XRPD): may revert to Form A

## COc1cc(N2CCC(N3CCN(C)CC3)CC2)ccc1Nc1ncc(Cl)c(Nc2ccccc2P(C)(C)=O)n1 [Form H, brigatinib]
[1]; ambient conditions for 1-3 weeks
  Solid form after storage (XRPD): had partially transformed to Form A
